Measurements: patent US9334487B2, “Methods for diagnosing rheumatoid arthritis” (Imperial Innovations Limited, priority 2007, dated 2016)
“Also recorded” adds a separate entry of the source. Bridges are numbered along the chain shown (N, C = ends). Where no end group is shown, it is not given here. [ ]: non-standard residue; d: D form. Cit = NC(=O)NCCC[C@H](N)C(=O)O

Key:
[1] = test system: serum IgG of RA patients, disease controls and healthy controls; test: ELISA for IgG antibodies to cyclic α-enolase peptides, UK cohort sera; type: binding, human; details: for % positive, RA (n = 102): UK cohort RA sera; for % positive, RA (n = 102) / % positive, Disease controls (n = 110) / % positive, Healthy controls (n = 92): cut-off OD450 = 0.1; for % positive, Disease controls (n = 110) / % positive, Healthy controls (n = 92) / sensitivity for RA: UK cohort; for IgG antibody levels / reactivity (OD450) in RA sera / sensitivity for RA: 102 RA patients; for IgG antibody levels / reactivity (OD450) in RA sera: OD450 (peptide)-OD450 (background)
Description: (§1) Serum samples were obtained with informed consent and ethical approval from 102 patients with RA and 92 (or 110 patients for the results generally shown in FIGS. 9 to 16) patients with other arthritidies (including systemic lupus erythematosus (n=32), Sjogrens syndrome (n=31), psoriatic arthritis (n=5), Behçet's syndrome (n=18; FIGS. 9 to 16) and miscellaneous other rheumatic diseases (n=24). 92 control serum samples were obtained from healthy volunteers. An additional cohort of 24 patients with RA undergoing treatment with either methotrexate (MTX) alone (n=13) or methotrexate in combination with Infliximab (INF) (n=11) were collected before treatment as well as 6, 18 and 52 weeks post treatment. Disease activity score (DAS 28), erythrocyte sedimentation rate (ESR) and C-reactive protein (CRP) were measured for each patient at the same time points, i.e. 0, 6, 18 an 52 weeks post treatment. All patients attended the Rheumatology Clinic at Charing Cross Hospital, London. An independent cohort from the US included serum samples from 81 RA patients, taken at baseline in a clinical trial at the Omaha Veterans Affairs Medical Centre, University of Nebraska, USA, and 82 serum samples from healthy volunteers. All RA patients met the American College of Rheumatology (ACR) classification criteria (43).
Fifteen cyclic 15 to 23-mer peptides were synthesised at Cambridge Research Biochemicals (Cleveland, UK). The peptide sequences corresponded to amino acid sequences in human α-enolase (SwissProt accession number P06733) or P. gingivalis enolase (SwissProt accession number AAQ66821), with the addition of cysteine residues at the amino- and carboxy-termini and the exchange of citrulline for arginine residues at certain positions, as shown in Tablet and Table 2 below.
(§2) 96-well plates (Maxisorp; Nunc, Roskilde, Denmark) were coated with α-enolase peptides at 10 μg/ml (diluted in a 50 mM carbonate buffer, pH 9.6), or with carbonate buffer alone, and incubated over night at 4° C. Wells were washed with PBS-Tween (0.05%) and blocked with 2% BSA (diluted in PBS) for 3 hours at room temperature. Sera were diluted 1:50 in RIA-buffer (10 mM Tris, 1% BSA, 350 mM NaCl, 1% Triton-X, 0.5% Na-deoxychlate, 0.1% SDS) supplemented with 10% FCS, added in duplicates and incubated for 1.5 hour at room temperature. Plates were washed as described above and incubated with peroxidase-conjugated mouse anti-human IgG (Hybridoma Reagent Laboratory, Baltimore, USA) (diluted 1:1000 in RIA-buffer, 10% FCS) for 1 hour at room temperature. After a final wash (PBS-Tween, 0.05%), bound antibodies were detected with TMB substrate (KPL, Maryland, USA). The reaction was stopped by the addition of 1M H2SO4 and absorbance measured at 450 nm in a Multiscan Ascent microplate reader (Thermo Labsystems). A control serum was included on all plates to correct for plate-to-plate variation. Background OD450 (wells coated with only carbonate buffer) was subtracted from peptide OD450 for every serum tested. Values above 0.1 were taken as positive. ELISA on the US serum samples were performed in a similar manner, but with 2% BSA in carbonate buffer as background, and with an OD cut-off of 0.2 for positive samples. Anti-CCP antibody status was analysed using the CCP2 kit (Eurodiagnostica, Malmo, Sweden), according to the manufacturer's instructions.

[2] = test system: anti-CEP-1 antibodies in anti-CEP-1 positive RA sera; test: Liquid phase inhibition of binding to CEP-1-coated plates; parameters: species or system human; details: six anti-CEP-1 positive RA sera pre-incubated with 0, 1, 10 and 100 μg/ml peptide
Description: Inhibition experiments were performed in liquid phase on six anti-CEP-1 positive RA serum samples or on solid phase using serum from nine double positive (anti-CEP-1 and CCP positive) RA patients. Sera were either pre-incubated for 2 hours in RIA-buffer containing increasing concentrations (0, 1, 10 and 100 μg/ml) of CEP-1, control peptide 1D, peptide 4, peptide 7, peptide 9 or peptide 11, or pre-absorbed on plates coated with CEP-1, carbonate buffer alone or pre-absorbed on commercial CCP2 plates. To eliminate antigen-antibody complexes, the liquid phase mixtures were centrifuged at 13 000 rpm, for 15 minutes, before the supernatants were transferred to CEP-1-coated plates and assessed as described above Inhibition of binding to CEP-1, for serum samples pre-absorbed to CCP, was calculated in relation to the maximum inhibition, which by definition was set to 100% for samples pre-incubated with CEP-1.

[3] = test system: serum IgG of RA patients and healthy controls (US cohort); test: anti-CEP-1 antibody ELISA, independent US cohort; type: binding, human; details: cut-off 98th percentile of controls
Description: as §1
as §2, with “ELISA on the US serum samples were performed in a similar manner, but with 2% BSA in carbonate buffer as background, and with an OD cut-off of 0.2 for positive samples.” left out, “instructions. […]” for “instructions.”

Substance | % positive, RA (n = 102) [1] [%] | % positive, Disease controls (n = 110) [1] [%] | % positive, Healthy controls (n = 92) [1] [%] | inhibition of antibody binding to CEP-1-coated plates [2] | other results
ckfag-X-nf-X-nplakc (CKFAG[Cit]NF[Cit]NPLAKC; disulfide 1-15 (inferred); listed as Homo sapiens) [Peptide 9, human α-enolase aa 422-434] | 15 | 1 | 1 | no inhibition | inhibition of antibody binding to CEP-1-coated plates ([2]; listed as peptide 9): did not result in decreased antibody binding
ckiha-R-eifds-X-gnptvec (CKIHAREIFDS[Cit]GNPTVEC; disulfide 1-19 (inferred); listed as Homo sapiens) [Peptide 1B] | 40 | – | – | – | IgG antibody levels / reactivity (OD450) in RA sera [1]: higher antibody levels; sensitivity for RA [1]: higher sensitivity
cekgvply-X-hiadlagnsec (CEKGVPLY[Cit]HIADLAGNSEC; disulfide 1-20 (inferred); listed as Homo sapiens) [Peptide 4, human α-enolase aa 125-142] | 16 | 2 | 2 | no inhibition | inhibition of antibody binding to CEP-1-coated plates ([2]; listed as peptide 4): did not result in decreased antibody binding
cvdlftskglf-X-aavpsgc (CVDLFTSKGLF[Cit]AAVPSGC; disulfide 1-19 (inferred); listed as Homo sapiens) [Peptide 2, human α-enolase aa 22-38] | 10 | 0 | 2 | – | –
ckiig-X-eilds-X-gnptvec (CKIIG[Cit]EILDS[Cit]GNPTVEC; disulfide 1-19 (inferred); listed as Homo sapiens) [1A P. gingivalis, P. gingivalis enolase version of CEP-1, X = citrulline] | 34 | – | – | – | % healthy controls positive, US cohort (n=82) [3]: 2%
ckiha-X-eifds-R-gnptvec (CKIHA[Cit]EIFDSRGNPTVEC; disulfide 1-19 (inferred); listed as Homo sapiens) [Peptide 1C] | 20 | – | – | – | sensitivity for RA [1]: about 20%
ciqvvgddltvtnpk-X-iakac (CIQVVGDDLTVTNPK[Cit]IAKAC; disulfide 1-21 (inferred); listed as Homo sapiens) [Peptide 10, human α-enolase aa 313-331] | 6 | – | 1 | – | –
cyealel-X-dndkt-X-ymgkgvskc (CYEALEL[Cit]DNDKT[Cit]YMGKGVSKC; disulfide 1-23 (inferred); listed as Homo sapiens) [Peptide 3, human α-enolase aa 44-64] | 15 | 2 | 0 | – | –
cnpk-X-iakavnekscncllc (CNPK[Cit]IAKAVNEKSCNCLLC; also: cyclic via terminal Cys, bond and pairing not given here; listed as Homo sapiens) [Peptide 11, human α-enolase aa 324-341] | 18 | – | 0 | no inhibition | inhibition of antibody binding to CEP-1-coated plates ([2]; listed as peptide 11): did not result in decreased antibody binding
cakynqll-X-ieeelgskac (CAKYNQLL[Cit]IEEELGSKAC; disulfide 1-19 (inferred); listed as Homo sapiens) [Peptide 8, human α-enolase aa 405-421] | 7 | 4 | 0 | – | –
cnf-X-eam-X-igaevyhnlknc (CNF[Cit]EAM[Cit]IGAEVYHNLKNC; disulfide 1-20 (inferred); listed as Homo sapiens) [Peptide 5, human α-enolase aa 177-194] | 11 | 4 | 3 | – | –
ckiha-R-eifds-R-gnptvec (CKIHAREIFDSRGNPTVEC; listed as Homo sapiens) [Peptide 1D, arginine containing control peptide, aa 5-21] | – | 2 | 3 | did not result in decreased antibody binding; also recorded: no inhibition | IgG antibody levels / reactivity (OD450) in RA sera [1]: low IgG-levels; also recorded: low reactivity; IgG antibody levels / reactivity (OD450) in RA sera ([1]; listed as arginine-containing control peptide): low degree of reactivity; IgG antibody levels / reactivity (OD450) in RA sera ([1]; listed as peptide 1D): low IgG-levels; sensitivity for RA [1]: about 4.9%
